Results taken from ChEMBL document CHEMBL1157330, “Diplobifuranylones A and B, 5'-monosubstituted tetrahydro-2H-bifuranyl-5-ones produced by Diplodia corticola, a fungus pathogen of cork oak” (J Nat Prod, 2006).

System: Solanum lycopersicum
Assay: Phytotoxicity against Lycopersicon esculentum L. var. Marmande at 0.05 to 0.1 mg/mL by tomato cutting assay
Assay type: organism-based
Details: in vivo

| Structure (SMILES) | Activity |
| --- | --- |
| C[C@H](O)[C@H]1C=CC(C2CCC(=O)O2)O1 (some centres not stated) [DIPLOBIFURANYLONE B] | Non-toxic |
| C[C@H](O)[C@@H]1C=CC(C2CCC(=O)O2)O1 (some centres not stated) [DIPLOBIFURANYLONE A] | Non-toxic |
